Experimental data from ChEMBL document CHEMBL1157216, “A common protein fold topology shared by flavonoid biosynthetic enzymes and therapeutic targets” (J Nat Prod, 2006).
Converted amounts (≈) assume the structure as drawn.

Tests used:
[1] = Inhibition of FGFR
[2] = Inhibition of PKC
[3] = Inhibition of PI3K
[4] = Inhibition of thymocyte protein tyrosine kinase
[5] = target: Proto-oncogene tyrosine-protein kinase Src (Homo sapiens, UniProt P12931); test: Inhibition of c-Src
[6] = target: Epidermal growth factor receptor (Homo sapiens, UniProt P00533); test: Inhibition of EGFR
[7] = target: Cyclin-dependent kinase 6 (Homo sapiens, UniProt Q00534); test: Inhibition of CDK6
[8] = Inhibition of CK2
[9] = Inhibition of CK1
[10] = target: Myosin light chain kinase, smooth muscle (Homo sapiens, UniProt Q15746); test: Inhibition of MLCK
[11] = Inhibition of PKA
[12] = Inhibition of CaM kinase
[13] = Inhibition of Rous sarcoma virus SRC
[14] = Inhibition of PKD

Sequence of Epidermal growth factor receptor (P00533 whole entry): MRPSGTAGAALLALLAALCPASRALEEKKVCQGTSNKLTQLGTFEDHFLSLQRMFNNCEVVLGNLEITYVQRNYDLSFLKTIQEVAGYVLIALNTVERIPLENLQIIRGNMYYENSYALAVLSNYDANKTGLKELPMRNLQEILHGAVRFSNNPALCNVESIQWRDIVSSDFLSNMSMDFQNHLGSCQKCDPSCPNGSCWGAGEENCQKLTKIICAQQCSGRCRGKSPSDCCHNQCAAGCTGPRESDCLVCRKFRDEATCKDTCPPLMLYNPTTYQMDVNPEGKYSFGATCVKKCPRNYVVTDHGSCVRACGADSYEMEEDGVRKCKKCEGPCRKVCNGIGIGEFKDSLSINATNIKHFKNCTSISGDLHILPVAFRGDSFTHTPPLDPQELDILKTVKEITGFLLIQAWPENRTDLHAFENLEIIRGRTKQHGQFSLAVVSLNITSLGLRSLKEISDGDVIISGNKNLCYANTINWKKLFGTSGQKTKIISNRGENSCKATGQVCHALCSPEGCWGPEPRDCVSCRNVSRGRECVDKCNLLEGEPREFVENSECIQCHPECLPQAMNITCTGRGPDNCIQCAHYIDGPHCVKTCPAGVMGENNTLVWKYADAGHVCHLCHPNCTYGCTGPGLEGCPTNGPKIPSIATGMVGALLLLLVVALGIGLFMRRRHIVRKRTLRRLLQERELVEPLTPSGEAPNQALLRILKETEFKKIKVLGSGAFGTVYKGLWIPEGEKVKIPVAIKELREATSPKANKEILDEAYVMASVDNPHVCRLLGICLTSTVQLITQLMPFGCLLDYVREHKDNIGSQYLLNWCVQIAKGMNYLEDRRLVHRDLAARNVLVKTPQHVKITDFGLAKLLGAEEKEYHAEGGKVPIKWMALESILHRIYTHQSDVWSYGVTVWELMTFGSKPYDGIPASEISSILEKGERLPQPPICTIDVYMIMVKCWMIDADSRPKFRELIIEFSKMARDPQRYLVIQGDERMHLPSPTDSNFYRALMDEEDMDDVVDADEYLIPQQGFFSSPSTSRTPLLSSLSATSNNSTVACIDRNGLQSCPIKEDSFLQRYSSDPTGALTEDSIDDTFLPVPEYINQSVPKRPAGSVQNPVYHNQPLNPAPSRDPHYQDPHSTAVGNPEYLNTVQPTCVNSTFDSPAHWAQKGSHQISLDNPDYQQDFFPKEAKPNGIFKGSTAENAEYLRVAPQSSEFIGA
Sequence of Myosin light chain kinase, smooth muscle (Q15746 whole entry): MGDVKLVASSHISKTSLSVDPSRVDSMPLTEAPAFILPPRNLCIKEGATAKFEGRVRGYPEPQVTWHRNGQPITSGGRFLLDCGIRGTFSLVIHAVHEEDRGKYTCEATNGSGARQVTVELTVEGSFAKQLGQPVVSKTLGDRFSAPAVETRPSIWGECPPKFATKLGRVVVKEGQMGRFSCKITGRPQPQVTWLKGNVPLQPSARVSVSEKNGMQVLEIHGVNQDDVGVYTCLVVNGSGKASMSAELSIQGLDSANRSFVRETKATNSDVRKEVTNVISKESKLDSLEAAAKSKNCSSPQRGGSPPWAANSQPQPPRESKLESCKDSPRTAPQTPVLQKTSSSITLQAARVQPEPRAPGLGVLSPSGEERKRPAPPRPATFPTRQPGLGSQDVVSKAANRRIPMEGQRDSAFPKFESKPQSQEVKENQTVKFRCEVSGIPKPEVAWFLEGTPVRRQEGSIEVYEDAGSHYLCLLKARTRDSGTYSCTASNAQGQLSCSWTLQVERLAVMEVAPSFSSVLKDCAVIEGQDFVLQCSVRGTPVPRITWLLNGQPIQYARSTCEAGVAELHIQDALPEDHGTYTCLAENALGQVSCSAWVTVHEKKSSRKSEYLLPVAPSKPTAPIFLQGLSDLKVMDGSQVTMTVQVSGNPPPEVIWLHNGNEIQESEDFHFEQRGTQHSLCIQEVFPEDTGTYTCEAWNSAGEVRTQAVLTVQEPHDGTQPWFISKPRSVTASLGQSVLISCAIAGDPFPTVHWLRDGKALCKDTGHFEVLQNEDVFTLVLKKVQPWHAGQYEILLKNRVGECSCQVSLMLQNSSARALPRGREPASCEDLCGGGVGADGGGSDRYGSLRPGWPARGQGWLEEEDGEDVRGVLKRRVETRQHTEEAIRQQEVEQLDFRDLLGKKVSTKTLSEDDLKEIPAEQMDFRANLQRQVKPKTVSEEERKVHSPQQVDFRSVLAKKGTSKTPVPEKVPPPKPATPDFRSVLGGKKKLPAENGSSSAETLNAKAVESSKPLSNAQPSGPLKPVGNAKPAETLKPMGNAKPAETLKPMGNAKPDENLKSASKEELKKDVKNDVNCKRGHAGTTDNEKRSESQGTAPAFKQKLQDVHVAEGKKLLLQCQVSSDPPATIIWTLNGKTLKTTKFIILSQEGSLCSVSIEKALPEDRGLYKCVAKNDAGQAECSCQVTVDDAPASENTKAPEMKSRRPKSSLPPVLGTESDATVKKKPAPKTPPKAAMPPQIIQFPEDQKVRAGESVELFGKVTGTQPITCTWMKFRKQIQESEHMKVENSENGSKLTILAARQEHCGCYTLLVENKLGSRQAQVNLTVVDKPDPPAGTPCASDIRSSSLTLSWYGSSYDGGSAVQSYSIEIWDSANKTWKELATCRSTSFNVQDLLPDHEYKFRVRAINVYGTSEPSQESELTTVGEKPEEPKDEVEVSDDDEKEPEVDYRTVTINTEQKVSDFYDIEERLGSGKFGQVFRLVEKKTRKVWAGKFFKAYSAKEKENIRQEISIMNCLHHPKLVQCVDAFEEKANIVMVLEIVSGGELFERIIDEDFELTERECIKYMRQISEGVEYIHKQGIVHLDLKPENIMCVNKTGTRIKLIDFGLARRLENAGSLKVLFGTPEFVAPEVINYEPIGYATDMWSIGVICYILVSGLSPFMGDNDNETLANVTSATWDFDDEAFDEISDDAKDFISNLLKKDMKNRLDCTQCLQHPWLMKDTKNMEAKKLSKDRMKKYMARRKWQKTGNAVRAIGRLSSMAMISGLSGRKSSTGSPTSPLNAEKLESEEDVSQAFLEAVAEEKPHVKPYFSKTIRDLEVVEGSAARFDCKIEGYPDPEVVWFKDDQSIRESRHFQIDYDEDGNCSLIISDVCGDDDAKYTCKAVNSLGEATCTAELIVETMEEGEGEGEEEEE
Sequence of Cyclin-dependent kinase 6 (Q00534 whole entry): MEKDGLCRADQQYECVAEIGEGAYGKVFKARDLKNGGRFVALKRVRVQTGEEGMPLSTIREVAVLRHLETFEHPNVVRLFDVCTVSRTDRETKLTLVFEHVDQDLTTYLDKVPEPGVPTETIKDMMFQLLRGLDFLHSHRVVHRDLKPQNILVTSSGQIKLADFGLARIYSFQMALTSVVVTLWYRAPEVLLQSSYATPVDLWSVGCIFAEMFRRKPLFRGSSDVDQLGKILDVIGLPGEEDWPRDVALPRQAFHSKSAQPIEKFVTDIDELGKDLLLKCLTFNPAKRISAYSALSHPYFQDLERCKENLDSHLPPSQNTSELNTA
Sequence of Proto-oncogene tyrosine-protein kinase Src (P12931 2-536 limits assumed): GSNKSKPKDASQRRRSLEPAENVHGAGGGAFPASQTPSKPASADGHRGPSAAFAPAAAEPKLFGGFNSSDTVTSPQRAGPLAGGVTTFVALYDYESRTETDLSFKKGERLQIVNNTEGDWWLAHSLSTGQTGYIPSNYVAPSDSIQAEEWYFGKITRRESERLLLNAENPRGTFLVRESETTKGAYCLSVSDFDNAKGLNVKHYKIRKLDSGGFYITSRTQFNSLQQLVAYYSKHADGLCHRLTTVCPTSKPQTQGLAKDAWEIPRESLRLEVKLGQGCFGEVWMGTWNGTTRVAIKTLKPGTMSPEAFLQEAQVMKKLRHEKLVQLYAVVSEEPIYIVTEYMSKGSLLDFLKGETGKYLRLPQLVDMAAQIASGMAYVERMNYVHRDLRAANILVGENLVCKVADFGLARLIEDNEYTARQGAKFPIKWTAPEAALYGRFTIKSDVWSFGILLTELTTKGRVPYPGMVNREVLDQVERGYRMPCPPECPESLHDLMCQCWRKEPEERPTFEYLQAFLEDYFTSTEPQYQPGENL

O=c1cc(-c2ccc(O)cc2)oc2cc(O)cc(O)c12 [APIGENIN]
IC50 [1]: 20 µM
IC50 [2]: 10 µM
IC50 [3]: 12 µM
ID50 [4]: 90 mg/L (≈ 333 µM)

O=C(/C=C/c1ccc(O)c(O)c1)c1ccc(O)cc1O [BUTEIN]
IC50 [5]: 65 µM
IC50 [6]: 8 µM

O=C1c2ccccc2-[n+]2ccc3c([nH]c4ccccc43)c21 [FASCAPLYSIN CHLORIDE]
IC50 [7]: 3.4 µM

O=c1c(O)c(-c2ccc(O)c(O)c2)oc2cc(O)ccc12 [FISETIN]
IC50 [3]: 10 µM
IC50 [8]: 0.35 µM
IC50 [4]: 35 µM

O=c1cc(-c2ccc(O)c(O)c2)oc2cc(O)cc(O)c12 [LUTEOLIN]
IC50 [3]: 8 µM

O=c1c(O)c(-c2cc(O)c(O)c(O)c2)oc2cc(O)cc(O)c12 [MYRICETIN]
Ki [2]: 12.1 µM
IC50 [3]: 1.8 µM
Kd [3]: 0.17 µM
Ki [9]: 9 µM
IC50 [8]: 0.92 µM
Ki [8]: 0.6 µM
Ki [10]: 1.7 µM
Ki [11]: 27.5 µM

Oc1cc(O)cc(/C=C/c2ccc(O)c(O)c2)c1 [PICEATANNOL]
IC50 [2]: 8 µM
IC50 [10]: 12 µM
IC50 [11]: 3 µM
Ki [4]: 15 µM
IC50 [12]: 19 µM

O=c1c(O)c(-c2ccc(O)c(O)c2)oc2cc(O)cc(O)c12 [QUERCETIN]
Ki [13]: 6 µM
IC50 [3]: 3.8 µM
Kd [3]: 0.28 µM
ID50 [4]: 11 mg/L (≈ 36.4 µM)

Oc1ccc(/C=C/c2cc(O)cc(O)c2)cc1 [RESVERATROL]
IC50 [2]: 90 µM
Ki [2]: 55 µM
IC50 [8]: 10 µM
Ki [8]: 1.2 µM
IC50 [14]: 200 µM

COc1c(O)cc2occ(-c3ccc(O)cc3)c(=O)c2c1O [TECTORIGENIN]
IC50 [6]: 3.3 µM
